Where two headings read alike, the source gives them in different places.
Test: GHB toxicokinetic study, i.v. bolus, plasma and urine up to 8 h, noncompartmental analysis
Format: in vivo, Sprague Dawley rats
Details: rat, iv
Experimental: Male and female Sprague Dawley (SD) rats, ovariectomized (OVX) females, and castrated (CST) males were obtained from Charles River (Wilmington, MA, USA) at 8 weeks of age. The animals were housed under controlled temperature and humidity with an artificial 12 h light/dark cycle, and food and water were available ad libitum. The animals were acclimatized for at least one week before experiments. Hormone treatment was conducted by implanting OVX female and CST male rats subcutaneously with 60-day release pellets containing 7.5 mg testosterone or corresponding placebo pellets (Innovative Research of America) at 10 weeks of age. After 21 days of hormone exposure, rats were utilized in toxicokinetic studies. Age-matched male and female rats were used as control groups. Female rats in the estrus stage were selected for the study. Estrus cycle stages of female rats were monitored daily by vaginal lavage smear, as described in previously published literature. The Institutional Animal Care and Use Committee (IACUC) at the University of the Pacific approved all experiments.
Jugular vein cannulas were surgically implanted under anesthesia with ketamine/xylazine. Cannulas were flushed daily with heparinized saline to maintain patency. Rats were allowed a minimum of 72 h for recovery from surgery before the experiments were conducted. GHB was administered intravenously as a 1000 mg/kg i.v. bolus or 1500 mg/kg iv bolus with or without AR-C155858 (1 mg/kg i.v. bolus) via a jugular vein cannula to the animals at 13 weeks of age (N = 5–7 per group). Rats were dosed in metabolic cages with ad libitum access to water to allow for the concurrent collection of blood and urine samples for up to 8 h. GHB was administered as a 300 mg/mL solution in sterile water, and the time of administration was considered as time 0. AR-C155858 was administered as a 1 mg/mL solution in 10% cyclodextrin in normal saline 5 min after GHB administration. Blood samples (200 μL) were taken from the jugular vein cannula at different time points: 5, 10, 20, 30, 60, 90, 120, 180, 240, 270, 300, and 330 min for 1000 mg/kg and 10, 30, 60, 90, 120, 180, 240, 270, 300, 330, 360, and 390/480 min for 1500 mg/kg bolus with or without AR-C155858. Plasma samples were separated by centrifugation and stored at −20 °C. Urine samples were collected at 120, 240, and 360 min for 1000 mg/kg and 120, 240, and 390/480 min for 1500 mg/kg bolus with or without AR-C155858 post-dose; the total urine volume was determined, and the samples were stored at −20 °C.
GHB in plasma and urine were quantified using a validated liquid chromatography/tandem mass spectrometry (LC/MS/MS) assay that was described previously. Briefly, for the preparation of plasma standards and quality controls (QCs), 5 μL of GHB-d6 and 5 μL of standard stock solution or QC stock solution were added to 45 μL of blank plasma. For each unknown plasma sample, 5 μL of GHB-d6 was added to 50 μL of plasma. Protein precipitation was then performed by the addition of 800 μL of acetonitrile with 0.1% formic acid, followed by centrifugation at 10,000 rpm for 20 min. 750 μL of the supernatant was transferred to a clean disposable glass tube and evaporated using a MultiVap Nitrogen Evaporator (Organomation, Berlin, MA, USA) under a nitrogen stream. Dried samples were reconstituted in 250 μL of 95:5 double-distilled water—acetonitrile with 0.1% acetic acid. For urine standards and QCs, 25 μL of blank urine, 5 μL of standard or QC stock solution, 5 μL of GHB-d6, and 465 μL of double-distilled water were mixed. For unknown urine samples, 25 μL of the sample was added to 5 μL of GHB-d6 and 470 μL of double-distilled water. The same LC/MS/MS method was used for GHB plasma and urine analyses. LC/MS/MS equipment consisted of an Agilent 1200 series UPLC consisting of an online degasser, binary pump, and autosampler (Agilent Technologies, Santa Clara, CA, USA) connected to a Agilent 6460 Triple Quad Mass Spectrometer. […]

With `O=C(O)CCCO` [GHB, Γ-hydroxybutyric acid] the clearance (female, Sprague Dawley, plasma and urine, 1000 mg/kg, 1000 mg/kg GHB iv, intact female (estrus) rats, read-out: CLm – Metabolic clearance) was 4.1 ± 0.6 mL/min/kg, the CL renal (female, Sprague Dawley, plasma and urine, 1500 mg/kg, 1500 mg/kg GHB iv, OVX testosterone placebo rats, read-out: CLR (renal clearance)) was 3.5 ± 0.5 mL/min/kg and the CL renal (female, Sprague Dawley, plasma and urine, 1500 mg/kg, 1500 mg/kg GHB iv, OVX testosterone rats, read-out: CLR (renal clearance)) was 2.7 ± 1.5 mL/min/kg. It also gave a CL renal (female, Sprague Dawley, plasma and urine, 1500 mg/kg, 1500 mg/kg GHB iv, intact female (estrus) rats, read-out: CLR (renal clearance)) of 3.7 ± 1.1 mL/min/kg, a clearance (female, Sprague Dawley, plasma, 1000 mg/kg, 1000 mg/kg GHB iv, OVX testosterone placebo rats, read-out: CL - Total clearance) of 5.5 ± 0.3 mL/min/kg and a clearance (female, Sprague Dawley, plasma, 1000 mg/kg, 1000 mg/kg GHB iv, intact female (estrus) rats, read-out: CL - Total clearance) of 6.8 ± 0.7 mL/min/kg. It also gave a clearance (female, Sprague Dawley, plasma, 1500 mg/kg, 1500 mg/kg GHB iv, intact female (estrus) rats, read-out: CL (total clearance)) of 4.7 ± 1.1 mL/min/kg, a CL renal (female, Sprague-Dawley, plasma and urine, 1500 mg/kg, 1500 mg/kg GHB + 1mg/kg AR-C 155858 iv, OVX testosterone placebo rats, read-out: CLR (renal clearance)) of 7 ± 1.4 mL/min/kg and a clearance (female, Sprague-Dawley, plasma and urine, 1500 mg/kg, 1500 mg/kg GHB + 1mg/kg AR-C 155858 iv, OVX testosterone placebo rats, read-out: CLm (metabolic clearance)) of 2.7 ± 0.9 mL/min/kg. It also gave a CL renal (female, Sprague-Dawley, plasma and urine, 1500 mg/kg, 1500 mg/kg GHB + 1mg/kg AR-C 155858 iv, OVX testosterone rats, read-out: CLR (renal clearance)) of 7 ± 0.9 mL/min/kg, a clearance (female, Sprague-Dawley, plasma and urine, 1500 mg/kg, 1500 mg/kg GHB + 1mg/kg AR-C 155858 iv, OVX testosterone rats, read-out: CLm (metabolic clearance)) of 2.4 ± 1.3 mL/min/kg and a CL renal (female, Sprague-Dawley, plasma and urine, 1500 mg/kg, 1500 mg/kg GHB + 1mg/kg AR-C 155858 iv, intact female (estrus) rats, read-out: CLR (renal clearance)) of 6.3 ± 1.8 mL/min/kg. It also gave a clearance (female, Sprague-Dawley, plasma and urine, 1500 mg/kg, 1500 mg/kg GHB + 1mg/kg AR-C 155858 iv, intact female (estrus) rats, read-out: CLm (metabolic clearance)) of 2.2 ± 0.4 mL/min/kg, a clearance (female, Sprague-Dawley, plasma, 1500 mg/kg, 1500 mg/kg GHB + 1mg/kg AR-C 155858 iv, OVX testosterone placebo rats, read-out: CL (total clearance)) of 9.7 ± 2.1 mL/min/kg and a clearance (female, Sprague-Dawley, plasma, 1500 mg/kg, 1500 mg/kg GHB + 1mg/kg AR-C 155858 iv, OVX testosterone rats, read-out: CL (total clearance)) of 9.4 ± 1.4 mL/min/kg. The clearance (female, Sprague-Dawley, plasma, 1500 mg/kg, 1500 mg/kg GHB + 1mg/kg AR-C 155858 iv, intact female (estrus) rats, read-out: CL (total clearance)) was 8.5 ± 1.9 mL/min/kg, the clearance (female, Sprague-Dawley, plasma, 1500 mg/kg, 1500 mg/kg GHB iv, OVX testosterone placebo rats, read-out: CL (total clearance)) was 5.7 ± 0.9 mL/min/kg and the CL renal (male, Sprague Dawley, plasma and urine, 1000 mg/kg, 1000 mg/kg GHB iv, CST testosterone placebo rats, read-out: CLR - Renal clearance) was 3 ± 0.7 mL/min/kg. The clearance (male, Sprague Dawley, plasma and urine, 1000 mg/kg, 1000 mg/kg GHB iv, CST testosterone placebo rats, read-out: CLm – Metabolic clearance) was 1.6 ± 0.5 mL/min/kg, the clearance (male, Sprague Dawley, plasma and urine, 1000 mg/kg, 1000 mg/kg GHB iv, CST testosterone rats, read-out: CLm – Metabolic clearance) was 2.1 ± 0.4 mL/min/kg and the CL renal (male, Sprague Dawley, plasma and urine, 1000 mg/kg, 1000 mg/kg GHB iv, intact male rats, read-out: CLR - Renal clearance) was 2.2 ± 0.4 mL/min/kg. It also gave a clearance (male, Sprague Dawley, plasma and urine, 1000 mg/kg, 1000 mg/kg GHB iv, intact male rats, read-out: CLm – Metabolic clearance) of 2.4 ± 0.5 mL/min/kg, a CL renal (male, Sprague Dawley, plasma and urine, 1500 mg/kg, 1500 mg/kg GHB iv, CST testosterone placebo rats, read-out: CLR (renal clearance)) of 2.9 ± 0.4 mL/min/kg and a CL renal (male, Sprague Dawley, plasma and urine, 1500 mg/kg, 1500 mg/kg GHB iv, intact male rats, read-out: CLR (renal clearance)) of 4.2 ± 1.3 mL/min/kg. The clearance (male, Sprague Dawley, plasma, 1000 mg/kg, 1000 mg/kg GHB iv, CST testosterone placebo rats, read-out: CL - Total clearance) was 4.6 ± 0.8 mL/min/kg, the clearance (male, Sprague Dawley, plasma, 1000 mg/kg, 1000 mg/kg GHB iv, CST testosterone rats, read-out: CL - Total clearance) was 5.3 ± 1 mL/min/kg and the clearance (male, Sprague Dawley, plasma, 1000 mg/kg, 1000 mg/kg GHB iv, intact male rats, read-out: CL - Total clearance) was 4.6 ± 0.8 mL/min/kg. For the same molecule, the clearance (male, Sprague Dawley, plasma, 1500 mg/kg, 1500 mg/kg GHB iv, intact male rats, read-out: CL (total clearance)) was 4.8 ± 1.4 mL/min/kg, the CL renal (male, Sprague-Dawley, plasma and urine, 1000 mg/kg, 1000 mg/kg GHB iv, CST testosterone rats, read-out: CLR - Renal clearance) was 3.2 ± 0.9 mL/min/kg and the CL renal (male, Sprague-Dawley, plasma and urine, 1500 mg/kg, 1500 mg/kg GHB + 1mg/kg AR-C 155858 iv, CST testosterone placebo rats, read-out: CLR (renal clearance)) was 5.4 ± 1.1 mL/min/kg. The clearance (male, Sprague-Dawley, plasma and urine, 1500 mg/kg, 1500 mg/kg GHB + 1mg/kg AR-C 155858 iv, CST testosterone placebo rats, read-out: CLm (metabolic clearance)) was 2.5 ± 1.3 mL/min/kg, the CL renal (male, Sprague-Dawley, plasma and urine, 1500 mg/kg, 1500 mg/kg GHB + 1mg/kg AR-C 155858 iv, CST testosterone rats, read-out: CLR (renal clearance)) was 5.6 ± 1.2 mL/min/kg and the clearance (male, Sprague-Dawley, plasma and urine, 1500 mg/kg, 1500 mg/kg GHB + 1mg/kg AR-C 155858 iv, CST testosterone rats, read-out: CLm (metabolic clearance)) was 1.9 ± 0.1 mL/min/kg. It also gave a CL renal (male, Sprague-Dawley, plasma and urine, 1500 mg/kg, 1500 mg/kg GHB + 1mg/kg AR-C 155858 iv, intact male rats, read-out: CLR (renal clearance)) of 6.1 ± 0.5 mL/min/kg, a clearance (male, Sprague-Dawley, plasma and urine, 1500 mg/kg, 1500 mg/kg GHB + 1mg/kg AR-C 155858 iv, intact male rats, read-out: CLm (metabolic clearance)) of 2.1 ± 0.3 mL/min/kg and a CL renal (male, Sprague-Dawley, plasma and urine, 1500 mg/kg, 1500 mg/kg GHB iv, CST testosterone rats, read-out: CLR (renal clearance)) of 1.4 ± 0.6 mL/min/kg. It also gave a clearance (male, Sprague-Dawley, plasma, 1500 mg/kg, 1500 mg/kg GHB + 1mg/kg AR-C 155858 iv, CST testosterone placebo rats, read-out: CL (total clearance)) of 7.9 ± 1.2 mL/min/kg, a clearance (male, Sprague-Dawley, plasma, 1500 mg/kg, 1500 mg/kg GHB + 1mg/kg AR-C 155858 iv, CST testosterone rats, read-out: CL (total clearance)) of 7.5 ± 1.4 mL/min/kg and a clearance (male, Sprague-Dawley, plasma, 1500 mg/kg, 1500 mg/kg GHB + 1mg/kg AR-C 155858 iv, intact male rats, read-out: CL (total clearance)) of 8.2 ± 0.6 mL/min/kg. For the same molecule, the clearance (male, Sprague-Dawley, plasma, 1500 mg/kg, 1500 mg/kg GHB iv, CST testosterone placebo rats, read-out: CL (total clearance)) was 4.9 ± 0.4 mL/min/kg and the clearance (male, Sprague-Dawley, plasma, 1500 mg/kg, 1500 mg/kg GHB iv, CST testosterone rats, read-out: CL (total clearance)) was 3.2 ± 0.7 mL/min/kg.

Reference: paper PMC10821532, “Sex and Cross-Sex Testosterone Treatment Alters Gamma-Hydroxybutyrate Acid Toxicokinetics and Toxicodynamics in Rats” (Pharmaceutics, 2024)
